According to patent publication US6737383B1, “Herbicidal oxadiazolidines” (priority 1999, dated 2004):

Legend:
wild oat = assay: Test B pre/postemergence wild oat; assay type: in vivo, Avena fatua
Summary of the method: (§1)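 Response is a visual 0-to-10 score relative to untreated plants, where 0 means no effect and 10 means complete control, taken twelve to sixteen days after application. Treatments went onto soil at planting and onto foliage of 1- to 4-leaf plants, using a surfactant-containing non-phytotoxic solvent.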

pigweed = assay: Test B pre/postemergence pigweed; assay type: in vivo, Amaranthus retroflexus
Summary of the method: as §1

rape = assay: Test B pre/postemergence rape; assay type: in vivo, Brassica napus
Summary of the method: as §1

velvetleaf = assay: Test B pre/postemergence velvetleaf; assay type: in vivo, Abutilon theophrasti
Summary of the method: as §1

sugar beet = assay: Test B pre/postemergence sugar beet; assay type: in vivo, Beta vulgaris
Summary of the method: as §1

soybean = assay: Test B pre/postemergence soybean; assay type: in vivo, Glycine max
Summary of the method: as §1

corn = assay: Test B pre/postemergence corn; assay type: in vivo, Zea mays
Summary of the method: as §1

duck salad = assay: Test B flood test duck salad; assay type: in vivo, Heteranthera limosa
Summary of the method: (§2)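 Each value is a visual injury score relative to controls, with 10 meaning complete control and 0 no effect. Evaluation took place twelve to sixteen days after the 2-leaf-stage plants were treated and kept in the greenhouse.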

cocklebur = assay: Test B pre/postemergence cocklebur; assay type: in vivo, Xanthium strumarium
Summary of the method: as §1

bamyardgrass = assay: Test B flood test barnyardgrass; assay type: in vivo, Echinochloa crus-galli
Summary of the method: as §2

giant foxtail = assay: Test B pre/postemergence giant foxtail; assay type: in vivo, Setaria faberii
Summary of the method: as §1

crabgrass = assay: Test B pre/postemergence crabgrass; assay type: in vivo, Digitaria sanguinalis
Summary of the method: as §1

wheat = assay: Test B pre/postemergence wheat; assay type: in vivo, Triticum aestivum
Summary of the method: as §1

purple nutsedge = assay: Test B pre/postemergence purple nutsedge; assay type: in vivo, Cyperus rotundus
Summary of the method: as §1

morningglory = assay: Test B pre/postemergence morningglory; assay type: in vivo, Ipomoea hederacea
Summary of the method: as §1

rice = assay: Test B flood test rice; assay type: in vivo, Oryza sativa
Summary of the method: as §2

[1] = Preemergence, Rate 31 g/ha, visual rating, scale 0 to 10 (0 no effect, 10 complete control)
[2] = Preemergence, Rate 62 g/ha, scale of 0 to 10 where 0 is no effect and 10 is complete control
[3] = Rate 16 g/ha, Postemergence, scale 0 to 10, 0 no effect, 10 complete control
[4] = Rate 16 g/ha, Preemergence, scale 0 to 10, 0 no effect, 10 complete control
[5] = Rate 62 g/ha, Postemergence, scale 0 to 10 (0 no effect, 10 complete control)
[6] = Rate 125 g/ha, Postemergence, scale of 0 to 10 where 0 is no effect and 10 is complete control
[7] = Rate 31 g/ha, Postemergence, scale 0 to 10
[8] = Rate 125 g/ha, Preemergence, scale of 0 to 10 where 0 is no effect and 10 is complete control
[9] = Rate 16 g/ha, head printed Pre-emergence (flood test species), scale 0 to 10, 0 no effect, 10 complete control
[10] = Rate 31 g/ha, Pre-emergence section (flood test species), scale 0 to 10
[11] = Rate 62 g/ha, headed Pre-emergence (flood test species), scale 0 to 10 (0 no effect, 10 complete control)
[12] = Rate 125 g/ha, Pre-emergence, flood test species, scale 0 to 10 where 0 is no effect and 10 is complete control

## CC(C)N(C(=O)n1oc(=O)n(CCCF)c1=O)c1ccc(F)cc1 [Compound 287]
Wild oat; [1]
  Wild oats plant response rating: 1
Wild oat; [2]
  Wild oats plant response rating: 8
Wild oat; [3]
  Wild oats plant response rating: 0
Wild oat; [4]
  Wild oats plant response rating: 0
Wild oat; [5]
  Wild oats plant response rating: 2
Wild oat; [6]
  Wild oats plant response rating: 3
pigweed; [1]
  Redroot pigweed plant response rating: 4
pigweed; [2]
  Redroot pigweed plant response rating: 5
pigweed; [3]
  Redroot pigweed plant response rating: 0
pigweed; [4]
  Redroot pigweed plant response rating: 0
pigweed; [7]
  Redroot pigweed plant response rating: 0
pigweed; [5]
  Redroot pigweed plant response rating: 2
pigweed; [6]
  Redroot pigweed plant response rating: 6
pigweed; [8]
  Redroot pigweed plant response rating: 8
rape; [1]
  Rape plant response rating: 4
rape; [2]
  Rape plant response rating: 4
rape; [3]
  Rape plant response rating: 0
rape; [4]
  Rape plant response rating: 0
rape; [7]
  Rape plant response rating: 0
rape; [5]
  Rape plant response rating: 0
rape; [6]
  Rape plant response rating: 0
rape; [8]
  Rape plant response rating: 8
velvetleaf; [1]
  Velvetleaf plant response rating: 3
velvetleaf; [2]
  Velvetleaf plant response rating: 6
velvetleaf; [3]
  Velvetleaf plant response rating: 0
velvetleaf; [4]
  Velvetleaf plant response rating: 1
velvetleaf; [5]
  Velvetleaf plant response rating: 0
velvetleaf; [6]
  Velvetleaf plant response rating: 4
velvetleaf; [8]
  Velvetleaf plant response rating: 7
Sugar beet; [1]
  Sugarbeets plant response rating: 0
Sugar beet; [2]
  Sugarbeets plant response rating: 3
Sugar beet; [3]
  Sugarbeets plant response rating: 0
Sugar beet; [4]
  Sugarbeets plant response rating: 0
Sugar beet; [5]
  Sugarbeets plant response rating: 0
Sugar beet; [6]
  Sugarbeets plant response rating: 0
Sugar beet; [8]
  Sugarbeets plant response rating: 6
soybean; [1]
  Soybean plant response rating: 0
soybean; [2]
  Soybean plant response rating: 0
soybean; [3]
  Soybean plant response rating: 1
soybean; [4]
  Soybean plant response rating: 0
soybean; [5]
  Soybean plant response rating: 1
soybean; [6]
  Soybean plant response rating: 3
soybean; [8]
  Soybean plant response rating: 6
corn; [1]
  Corn plant response rating: 0
corn; [2]
  Corn plant response rating: 0
corn; [3]
  Corn plant response rating: 0
corn; [4]
  Corn plant response rating: 0
corn; [7]
  Corn plant response rating: 0
corn; [5]
  Corn plant response rating: 0
corn; [6]
  Corn plant response rating: 0
corn; [8]
  Corn plant response rating: 0
Duck salad; [9]
  Ducksalad plant response rating: 0
Duck salad; [10]
  Ducksalad plant response rating: 0
Duck salad; [11]
  Ducksalad plant response rating: 0
Duck salad; [12]
  Ducksalad plant response rating: 0
cocklebur; [1]
  Cocklebur plant response rating: 0
cocklebur; [2]
  Cocklebur plant response rating: 0
cocklebur; [3]
  Cocklebur plant response rating: 0
cocklebur; [4]
  Cocklebur plant response rating: 0
cocklebur; [7]
  Cocklebur plant response rating: 0
cocklebur; [5]
  Cocklebur plant response rating: 0
cocklebur; [6]
  Cocklebur plant response rating: 1
cocklebur; [8]
  Cocklebur plant response rating: 0
bamyardgrass; [9]
  Barnyardgrass plant response rating: 0
bamyardgrass; [10]
  Barnyardgrass plant response rating: 0
bamyardgrass; [11]
  Barnyardgrass plant response rating: 0
bamyardgrass; [12]
  Barnyardgrass plant response rating: 0
Giant foxtail; [1]
  Giant foxtail plant response rating: 9
Giant foxtail; [2]
  Giant foxtail plant response rating: 10
Giant foxtail; [3]
  Giant foxtail plant response rating: 0
Giant foxtail; [4]
  Giant foxtail plant response rating: 8
Giant foxtail; [7]
  Giant foxtail plant response rating: 2
Giant foxtail; [5]
  Giant foxtail plant response rating: 7
Giant foxtail; [6]
  Giant foxtail plant response rating: 8
Giant foxtail; [8]
  Giant foxtail plant response rating: 10
crabgrass; [1]
  Crabgrass plant response rating: 2
crabgrass; [2]
  Crabgrass plant response rating: 8
crabgrass; [3]
  Crabgrass plant response rating: 0
crabgrass; [4]
  Crabgrass plant response rating: 0
crabgrass; [7]
  Crabgrass plant response rating: 2
crabgrass; [5]
  Crabgrass plant response rating: 2
crabgrass; [6]
  Crabgrass plant response rating: 5
crabgrass; [8]
  Crabgrass plant response rating: 9
wheat; [1]
  Wheat plant response rating: 0
wheat; [2]
  Wheat plant response rating: 0
wheat; [3]
  Wheat plant response rating: 0
wheat; [4]
  Wheat plant response rating: 0
wheat; [5]
  Wheat plant response rating: 5
wheat; [6]
  Wheat plant response rating: 5
wheat; [8]
  Wheat plant response rating: 7
Purple nutsedge; [1]
  Nutsedge plant response rating: 0
Purple nutsedge; [2]
  Nutsedge plant response rating: 0
Purple nutsedge; [3]
  Nutsedge plant response rating: 0
Purple nutsedge; [4]
  Nutsedge plant response rating: 0
Purple nutsedge; [7]
  Nutsedge plant response rating: 5
Purple nutsedge; [5]
  Nutsedge plant response rating: 6
Purple nutsedge; [6]
  Nutsedge plant response rating: 6
Purple nutsedge; [8]
  Nutsedge plant response rating: 6
morningglory; [1]
  Morningglory plant response rating: 0
morningglory; [2]
  Morningglory plant response rating: 0
morningglory; [3]
  Morningglory plant response rating: 2
morningglory; [4]
  Morningglory plant response rating: 0
morningglory; [7]
  Morningglory plant response rating: 2
morningglory; [5]
  Morningglory plant response rating: 2
morningglory; [6]
  Morningglory plant response rating: 2
morningglory; [8]
  Morningglory plant response rating: 0
rice; [9]
  Rice plant response rating: 0
rice; [10]
  Rice plant response rating: 0
rice; [11]
  Rice plant response rating: 0
rice; [12]
  Rice plant response rating: 0
